Reference: US20260125397A1, “MK2 DEGRADERS AND USES THEREOF” (Kymera Therapeutics, Inc., priority 2023, published 2026)

What was measured:
MK2 [1] = target: T1, MK2 (Homo sapiens, UniProt P49137); experiment: MK2 degradation in human THP-1 monocytic cells (MSD, 24 h); type: cell-based; parameters: endogenous in cells; conditions: THP-1 cells; for DC50: read-out: MK2 MSD THP-1 degradation 24 h GMean External Abs DC50
Procedure: The human monocytic cancer cell line THP-1 (ATCC (TIB-202)) was cultured in 96 well plates (Coming 3894) at a density of 200,000 cells per well in 100 microlitres in complete growth medium of RPMI 1640 (Gibco) pus 10% fetal Bovine Serum (Coming) and Penicillin/Streptomycin (SolarBio) at 37 degrees Celsius and 5% CO2. A serial dilution of each compound (usually 3 to 5 fold serial dilutions up to 10 separate concentration points) was added to individual wells from a 10 millimolar stock solution, at a background concentration of 0.1% DMSO and the cells were shaken at 600 rpm for 5 minutes and then were cultured for 24 hours at 37 degrees Celsius and 5% carbon dioxide. Separately, a custom MSD (MesoScaleDiscovery, L15XA-3) plate for detection of human MK2 was prepared by coating the plate with the commercial AbCarn ab247272 reagent in 1× Phosphate Buffered Saline at 40 microlitres per well and incubated at 4 degrees Celsius overnight. The next day, the MSD plate was washed with 150 microlitres of Tween buffered saline, blocked with MSD blocking buffer (3% BlockerA from MSD), and washed again.
(§1) The cell plate was centrifuged at 3,200 g for 5 minutes and the supernatant was discarded and 100 microlitres of RIPA lysis buffer (containing proteinase inhibitors, Boston BioProducts BP-115D) was added and the plate was sealed and shaken on ice for 20 minutes. The plate was centrifuged as before and 70 microlitres of sample lysate was added to the MSD plates and they were shaken at room temperature for I hour at 600 rpm. The MSD plate was washed 3 times as before and then the primary MK2 detection antibody (Santa Cruz sc-100393) was added at a final concentration of 1 microgram per ml at 25 microlitres per well and shaken at room temperature for 1 hour at 600 rpm.
(§2) After 3 more washes, the secondary detection antibody (SULFO-Tag anti rabbit antibody R32AB-5) was added at a final concentration of 1 microgram per ml at 25 microlitres per well and shaken at room temperature for 1 hour at 600 rpm. After 3 more washes, the 1X MSD (diluted from 5X concentrate with water) reading buffer was added at 150 microlitres per well and read on the MSD instrument Meso Sector S 600.
(§3) The inhibition/degradation curves and DC50 values were plotted and calculated using XL Fit (version v5.3.1.3) using equation 201 and a 4 parameter logistic model whereby fit=(A+((B−A)/(1+((x/C)D))) where A is the Bottom and B is the Top and C is the IC50and D is the slope and high C is the signal for the DMSO treated cells and Low C is the signal is the signal for the lysis buffer.

MK2 [2] = target: T1, MK2; experiment: MK2 degradation in human SW1353 cells (MSD, 24 h); type: cell-based; parameters: endogenous in cells; host or cells: SW-1353 (ATCC HTB-94); conditions: for Dmax: read-out: MK2 MSD SW 1353 24 h Dmax %; for DC50: read-out: MK2 MSD SW1353 degradation 24 h GMean External Abs DC50
Procedure: The human chondrocyte cancer cell line SW-1353 (ATCC(HTB-94)) was cultured in 96 well plates (Coming 3894) at a density of 200,000 cells per well in 100 microlitres in complete growth medium of Leibovitz's L-15 Medium (Gibco) pus 10% fetal Bovine Serum (Coming) and Penicillin/Streptomycin (SolarBio) at 37 degrees Celsius. A serial dilution of each compound (usually 3 to 5 fold serial dilutions up to 10 separate concentration points) was added to individual wells from a 10 millimolar stock solution, at a background concentration of 0.10% DMSO and the cells were shaken at 600 rpm for 5 minutes and then were cultured for 24 hours at 37 degrees Celsius. Separately, a custom MSD (MesoScaleDiscovery, L15XA-3) plate for detection of human MK2 was prepared by coating the plate with the commercial AbCam ab247272 reagent in 1× Phosphate Buffered Saline at 40 microlitres per well and incubated at 4 degrees Celsius overnight. The next day, the MSD plate was washed with 150 microlitres of Tween buffered saline, blocked with MSD blocking buffer (3% Blocker A from MSD), and washed again.
as §1, with “for 1” for “for I”
as §2
as §3, with “IC50 and” for “IC50and”

T1 sequence (P49137 whole entry): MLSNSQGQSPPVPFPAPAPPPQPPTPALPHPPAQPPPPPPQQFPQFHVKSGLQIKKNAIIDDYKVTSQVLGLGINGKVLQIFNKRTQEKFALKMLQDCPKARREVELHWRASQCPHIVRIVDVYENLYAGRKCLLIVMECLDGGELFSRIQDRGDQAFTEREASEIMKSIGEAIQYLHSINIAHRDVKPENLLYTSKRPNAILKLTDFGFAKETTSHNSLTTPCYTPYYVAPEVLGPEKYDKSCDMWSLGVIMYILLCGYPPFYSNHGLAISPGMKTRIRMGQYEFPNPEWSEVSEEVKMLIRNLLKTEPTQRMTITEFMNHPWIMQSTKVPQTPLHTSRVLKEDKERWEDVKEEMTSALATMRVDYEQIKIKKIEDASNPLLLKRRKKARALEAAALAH

Structure (SMILES)	Dmax (MK2 [1]) [%]	DC50 (MK2 [1]) [nM]	Dmax (MK2 [2]) [%]	DC50 (MK2 [2]) [nM]
Cn1c(=O)n(C2CCC(=O)NC2=O)c2ccc(N3CCN(CC#Cc4ccc(-c5nccc(-c6cc7c([nH]6)C6(CC6)CNC7=O)n5)cc4)CC3)cc21 (stereo not drawn) [I-51]	> 75	< 1	> 50	1 to 10
Cn1c(=O)n(C2CCC(=O)NC2=O)c2ccc(N3CC(CN4CCN(c5ccc(-c6nccc(-c7cc8c([nH]7)C7(CC7)CNC8=O)n6)cc5OC5CC5)CC4)C3)cc21 (stereo not drawn) [I-47]	> 50	< 1	> 50	> 100
Cn1c(=O)n(C2CCC(=O)NC2=O)c2cccc(-n3ccc(N4CCN(c5ccc(-c6nccc(-c7cc8c([nH]7)C7(CCCC7)CNC8=O)n6)cc5)CC4)c3)c21 (stereo not drawn) [I-32]	> 50	> 100	> 50	> 100
C[C@@H]1CNc2c(sc3ccc4nc(N5CC[C@H](N(C)C6CC7(CCN(c8ccc9c(c8)n(C)c(=O)n9C8CCC(=O)NC8=O)CC7)C6)C(F)(F)C5)ccc4c23)C(=O)N1 (stereo partly drawn) [I-21]	> 75	< 1	> 75	< 1
C[C@@H]1CNc2c(sc3ccc4nc(N5CCN(C[C@H]6C[C@@]7(CCN(c8ccc9c(c8)n(C)c(=O)n9C8CCC(=O)NC8=O)C7)C6)CC5)ccc4c23)C(=O)N1 (stereo partly drawn) [I-40]	> 75	< 1	> 75	< 1

Other lines, results leading:

Dmax (MK2 [1]) [%]	DC50 (MK2 [1]) [nM]	Dmax (MK2 [2]) [%]	DC50 (MK2 [2]) [nM]	Structure (SMILES)
> 75	1 to 10	> 75	1 to 10	C[C@@H]1CNc2c(sc3ccc4nc(N5CCN(CC6CCC7(CC6)CN(c6ccc(NC8CCC(=O)NC8=O)cc6F)C7)CC5)ccc4c23)C(=O)N1 (stereo partly drawn) [I-20]
> 75	< 1	> 75	< 1	C[C@@H]1CNc2c(sc3ccc4nc(N5CCN(CC6CC7(CCN(c8ccc9c(N%10CCC(=O)NC%10=O)cncc9c8)CC7)C6)CC5)ccc4c23)C(=O)N1 [I-50]
> 75	< 1	> 75	1 to 10	C[C@@H]1CNc2c(sc3ccc4nc(N5CCN(CCC6CCC7(CC6)CCN(C(=O)c6ccc(Cl)c(N8CCC(=O)NC8=O)c6)CC7)CC5)ccc4c23)C(=O)N1 [I-26]
50 to 75	< 1	> 50	< 1	COc1cc(-c2nccc(-c3cc4c([nH]3)C3(CC3)CNC4=O)n2)ccc1N1CCN(CC2CN(c3ccc4c(c3)n(C)c(=O)n4C3CCC(=O)NC3=O)C2)CC1 (stereo not drawn) [I-54]
